Measured values as given in patent publication US20220000841A1, “INHIBITORS OF METALLO-BETA-LACTAMASES” (CENTRE NATIONAL DE LA RECHERCHE SCIENTIFIQUE, priority 2018, published 2022).

What was measured:
[1] = biological target: NDM-1 (Klebsiella pneumoniae, UniProt C7C422); assay: Enzymatic assay for determination of inhibition constants, reporter substrate method, purified NDM-1; type: biochemical; conditions: for Ki: isolated MBL, competitive inhibition model; for % inhibition NDM-1: at 100 μM (maximal tested concentration);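 as to all read-outs here: purified enzyme activity followed as absorbance change from reporter substrate hydrolysis on a UV-Vis spectrophotometer or plate reader, 50 mM HEPES pH 7.5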
Sequence of NDM-1 (C7C422 29-270, looked up, species assumed): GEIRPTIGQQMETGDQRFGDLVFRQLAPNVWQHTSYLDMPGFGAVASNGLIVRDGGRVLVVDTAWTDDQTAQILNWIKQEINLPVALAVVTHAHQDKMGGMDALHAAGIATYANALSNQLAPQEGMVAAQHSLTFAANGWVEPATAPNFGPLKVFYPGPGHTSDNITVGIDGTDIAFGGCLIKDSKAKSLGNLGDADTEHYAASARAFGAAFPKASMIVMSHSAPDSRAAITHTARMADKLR
Experimental: (§1) The reaction rate was measured as the variation of absorbance observed upon substrate hydrolysis in a UV-Vis spectrophotometer or microplate reader at a wavelength of 300 nm (imipenem, meropenem), 260 nm (cefotaxime) or 482 nm (nitrocefin) in 50 mM HEPES buffer (pH 7.5) and in the presence of a purified MBL enzyme (such as VIM-1, VIM-2, VIM-4, NDM-1 and IMP-1, at a final concentration ranging 1-70 nM).
(§2) The inhibition constants (Ki) were determined on the basis of a model of competitive inhibition by analyzing the dependence of the ratio v0/vi (v0, hydrolysis velocity in the absence of inhibitor; vi, hydrolysis velocity in the presence of inhibitor) as a function of [I] as already described [Docquier J. D., Lamotte-Brasseur J., Galleni M., Amicosante G., Frère J. M., Rossolini G. M. (2003) J. Antimicrob. […] The slope of the plot of v0/vi vs [I], which corresponds to Km^S/(Km^S+[S])Ki (where Km^S is the Km value of the reporter substrate and [S] its concentration in the reaction mixture) and allowed the calculation of the Ki value. Alternatively, a Dixon plot analysis was carried out, by measuring the initial hydrolysis rates in the presence of variable concentrations of inhibitor and substrate.

[2] = test system: K. pneumoniae SI-001 (blaVIM-1+); assay: Broth microdilution MIC of meropenem in absence and presence of MBL inhibitor, SI-001; type: cell-based; conditions: MBL inhibitor fixed at 32 μg/ml, Mueller-Hinton broth, duplicate
Experimental: (§3) This method was performed in agreement with the CLSI recommendations (document M07-A10, 2015, “Methods for Dilution Antimicrobial Susceptibility Tests for Bacteria That Grow Aerobically”).
(§4) MIC values of meropenem (MEM) were determined in duplicate in Mueller-Hinton broth as recommended by CLSI (document M07-A10, 2015), in absence and presence of a fixed concentration of MBL inhibitor (32 μg/ml).

[3] = biological target: IMP-1 (Serratia marcescens, UniProt P52699); assay: Enzymatic assay for determination of inhibition constants, reporter substrate method, purified IMP-1; type: biochemical; conditions: for % inhibition IMP-1: at 100 μM (maximal tested concentration); for Ki: isolated MBL, competitive inhibition model;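 as to all read-outs here: purified IMP-1 (1-70 nM) hydrolysing a reporter substrate, initial rates followed as absorbance change at 260, 300 or 482 nm in 50 mM HEPES pH 7.5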
Sequence of IMP-1 (P52699 19-246, looked up, species assumed): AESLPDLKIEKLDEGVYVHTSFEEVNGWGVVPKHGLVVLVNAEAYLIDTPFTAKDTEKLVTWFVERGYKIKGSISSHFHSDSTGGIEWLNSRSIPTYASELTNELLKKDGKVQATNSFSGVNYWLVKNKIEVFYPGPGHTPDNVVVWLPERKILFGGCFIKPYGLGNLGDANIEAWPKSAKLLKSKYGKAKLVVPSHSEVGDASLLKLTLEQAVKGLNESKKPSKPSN
Experimental: as §1, §2

[4] = biological target: VIM-2 (Escherichia coli, UniProt Q5U7L7); assay: Enzymatic assay for determination of inhibition constants, reporter substrate method, purified VIM-2; type: biochemical; conditions: for Ki: isolated MBL, competitive inhibition model, read-out: Ki VIM-2;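 as to all read-outs here: purified VIM-2 hydrolysing a reporter substrate (imipenem, meropenem, cefotaxime or nitrocefin), reaction rate read as absorbance change, HEPES 50 mM at pH 7.5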
[5] = test system: K. pneumoniae S1-002 (blaVIM-4+); assay: Broth microdilution MIC of meropenem in absence and presence of MBL inhibitor, S1-002; type: cell-based; conditions: MBL inhibitor fixed at 32 μg/ml, Mueller-Hinton broth, duplicate
Experimental: as §3, §4

[6] = biological target: VIM-1 (Pseudomonas aeruginosa, UniProt A0A0F7KYQ8); assay: Enzymatic assay for determination of inhibition constants, reporter substrate method, purified VIM-1; type: biochemical; conditions: for Ki: isolated MBL, competitive inhibition model;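 as to all read-outs here: initial hydrolysis rates of a reporter β-lactam (imipenem, meropenem, cefotaxime or nitrocefin) followed by absorbance change, purified enzyme at 1–70 nM in 50 mM HEPES pH 7.5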
Experimental: as §1, §2

[7] = biological target: VIM-4 (Pseudomonas aeruginosa, UniProt Q8KRJ3); assay: Enzymatic assay for determination of inhibition constants, reporter substrate method, purified VIM-4; type: biochemical; conditions: at 100 μM (maximal tested concentration);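 also: purified VIM-4 (1-70 nM) in 50 mM HEPES pH 7.5, reporter substrate hydrolysis rate tracked by absorbance change (nitrocefin 482 nm, imipenem or meropenem 300 nm, cefotaxime 260 nm)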
Experimental: as §1, §2

[8] = at 100 μM (maximal tested concentration)

| SMILES | Ki [1] | MIC potentiation of meropenem (x.log2 dilutions), K. pneumoniae SI-001 (blaVIM-1+) [2] | % inhibition IMP-1 [3] | Ki [4] | MIC potentiation of meropenem (x.log2 dilutions), K. pneumoniae S1-002 (blaVIM-4+) [5] | Ki [6] | Ki [3] | % inhibition NDM-1 [1] | % inhibition VIM-4 [7] | % inhibition VIM-2 [4, 8] | % inhibition VIM-1 [6, 8] |
| --- | --- | --- | --- | --- | --- | --- | --- | --- | --- | --- | --- |
| Fc1ccccc1CSCCn1c(-c2ccccc2)n[nH]c1=S [Compound 71, 4-[2-(2-Fluorobenzylsulfanyl)ethyl]-3-phenyl-4,5-dihydro-1H-1,2,4-triazole-5-thione] | 10 to 100 µM | ≥4 log2 dilutions | 97% at 100 μM | < 1 µM | 3 log2 dilutions | < 1 µM | – | – | – | – | – |
| O=C(O)c1ccccc1CCn1c(-c2cccc(OCCN3CCOCC3)c2)n[nH]c1=S [Compound 62, o-(2-{3-[m-(2-Morpholinoethoxy)phenyl]-5-thioxo-1,4-dihydro-1,2,4-triazol-4-yl}ethyl)benzoic acid] | > 100 µM | 2 log2 dilutions | – | < 1 µM | 3 log2 dilutions | 1 to 10 µM | > 100 µM | – | – | – | – |
| O=C(O)CCSCCn1c(-c2ccccc2)n[nH]c1=S [Compound 66, [2-(3-Phenyl-5-thioxo-1,4-dihydro-1,2,4-triazol-4-yl)ethylthio]propionic acid] | – | 3 log2 dilutions | 65% at 100 μM | 1 to 10 µM | ≥4 log2 dilutions | 1 to 10 µM | – | 60% at 100 μM | – | – | – |
| Cc1ccccc1-c1n[nH]c(=S)n1CCSCc1ccccc1 [Compound 80, 4-[2-(Benzylthio)ethyl]-5-(o-tolyl)-2,4-dihydro-1,2,4-triazole-3-thione] | 10 to 100 µM | 2 log2 dilutions | – | < 1 µM | 3 log2 dilutions | < 1 µM | 10 to 100 µM | – | – | – | – |
| O=C(O)C(CSCCn1c(-c2cccc(-c3ccccc3)c2)n[nH]c1=S)c1ccccc1 (stereo not shown) [Compound 81, 3-{2-[3-(3-Biphenylyl)-5-thioxo-1,4-dihydro-1,2,4-triazol-4-yl]ethylthio}-hydratropic acid] | – | 2 log2 dilutions | 56% at 100 μM | < 1 µM | 3 log2 dilutions | 1 to 10 µM | – | 77% at 100 μM | – | – | – |
| O=C(O)C(CCCn1c(-c2ccccc2)n[nH]c1=S)N(Cc1c[nH]cn1)Cc1c[nH]cn1 (stereo not shown) [Compound 69, 2-[Bis(1H-imidazol-5-ylmethyl)amino]-5-(3-phenyl-5-sulfanylidene-4,5-dihydro-1H-1,2,4-triazol-4-yl)pentanoic acid] | – | ≥4 log2 dilutions | – | < 1 µM | ≥4 log2 dilutions | < 1 µM | > 100 µM | 85% at 100 μM | – | – | – |
| S=c1[nH]nc(-c2ccccc2)n1CCSCCc1ccccc1 [Compound 77, 4-[2-(2-Phenylethylsulfanyl)ethyl]-3-phenyl-4,5-dihydro-1H-1,2,4-triazole-5-thione] | – | 3 log2 dilutions | 89% at 100 μM | 1 to 10 µM | ≥4 log2 dilutions | < 1 µM | – | 92% at 100 μM | – | – | – |
| Fc1ccc(CSCCn2c(-c3ccccc3)n[nH]c2=S)cc1 [Compound 72, 4-[2-(4-Fluorobenzylsulfanyl)ethyl]-3-phenyl-4,5-dihydro-1H-1,2,4-triazole-5-thione] | 1 to 10 µM | 1 log2 dilutions | 96% at 100 μM | < 1 µM | 3 log2 dilutions | 1 to 10 µM | – | – | – | – | – |
| O=[N+]([O-])c1ccc(O)c(CSCCn2c(-c3ccccc3)n[nH]c2=S)c1 [Compound 76, 4-[2-(2-Hydroxy-5-Nitrobenzylsulfanyl)ethyl]-3-phenyl-4,5-dihydro-1H-1,2,4-triazole-5-thione] | – | ≥4 log2 dilutions | 62% at 100 μM | < 1 µM | 2 log2 dilutions | < 1 µM | – | 77% at 100 μM | – | – | – |
| Fc1ccc(CSCCn2c(-c3ccccc3)n[nH]c2=S)c(F)c1 [Compound 73, 4-[2-(2,4-Difluorobenzylsulfanyl)ethyl]-3-phenyl-4,5-dihydro-1H-1,2,4-triazole-5-thione] | 10 to 100 µM | 3 log2 dilutions | – | < 1 µM | ≥4 log2 dilutions | 1 to 10 µM | 1 to 10 µM | – | – | – | – |
| Oc1ccc(CCn2c(-c3cccc(-c4ccccc4)c3)n[nH]c2=S)c(O)c1 [Compound 42, 5-(3-Biphenyl)-4-[2-(2,4-dihydroxyphenyl)ethyl]-1,2,4-triazole-3-thione] | 10 to 100 µM | ≥4 log2 dilutions | – | 1 to 10 µM | ≥4 log2 dilutions | < 1 µM | > 100 µM | – | – | – | – |
| O=[N+]([O-])c1ccccc1CSCCn1c(-c2ccccc2)n[nH]c1=S [Compound 75, 4-[2-(2-Nitrobenzylsulfanyl)ethyl]-3-phenyl-4,5-dihydro-1H-1,2,4-triazole-5-thione] | – | 3 log2 dilutions | 72% at 100 μM | < 1 µM | ≥4 log2 dilutions | < 1 µM | – | 69% at 100 μM | – | – | – |
| S=c1[nH]nc(-c2ccccc2)n1CCSc1ccccc1 [Compound 70, 5-Phenyl-4-[2-(phenylthio)ethyl]-2,4-dihydro-1,2,4-triazole-3-thione] | 10 to 100 µM | ≥4 log2 dilutions | 84% at 100 μM | 1 to 10 µM | ≥4 log2 dilutions | 1 to 10 µM | – | – | – | – | – |
| O=C(O)c1ccccc1CCn1c(-c2cccc(-c3ccccc3)c2)n[nH]c1=S [Compound 39, 5-(3-Biphenyl)-4-[2-(2-carboxyphenyl)ethyl]-1,2,4-triazole-3-thione] | > 100 µM | 3 log2 dilutions | – | < 1 µM | ≥4 log2 dilutions | 1 to 10 µM | > 100 µM | – | – | – | – |
| Cn1cccc1-c1n[nH]c(=S)n1CCSCc1ccccc1 [Compound 64, 4-[2-(Benzylthio)ethyl]-5-(1-methyl-1H-pyrrol-2-yl)-2,4-dihydro-1,2,4-triazole-3-thione] | – | 3 log2 dilutions | 90% at 100 μM | < 1 µM | ≥4 log2 dilutions | < 1 µM | – | 75% at 100 μM | – | – | – |
| O=C(O)C(CCCn1c(-c2ccccc2)n[nH]c1=S)NCc1cccc(O)c1O (stereo not shown) [Compound 67] | > 100 µM | 2 log2 dilutions | – | – | 2 log2 dilutions | – | > 100 µM | – | 60% at 100 μM | 55% at 100 μM | 70% at 100 μM |
| O=C(O)C(CSCCn1c(-c2ccccc2)n[nH]c1=S)c1ccccc1 (stereo not shown) [Compound 78, 2-Phenyl-3-[2-(3-phenyl-5-thioxo-1,4-dihydro-1,2,4-triazol-4-yl)ethylthio]-propionic acid] | 1 to 10 µM | 3 log2 dilutions | – | < 1 µM | 2 log2 dilutions | < 1 µM | 10 to 100 µM | – | – | – | – |
